Experimental data reported in patent publication US9381200B2, “Nitrogen containing compounds” (WOCKHARDT LIMITED, priority 2011, dated 2016).
Converted amounts (≈) assume the structure as drawn. Read-outs that look alike come from different tables or passages of the source.

Columns and labels:
Experiment in all cases: Antibacterial activity (MIC), agar dilution per CLSI
Assay type in all cases: cell-based
E. coli 7 MP = details: Table 3, E. coli 7 MP expressing ESBL
Procedure: (§1) The biological activity of representative compounds according to the invention against various bacterial strains was investigated. In a typical study, overnight grown bacterial cultures were diluted appropriately and inoculated on the agar media containing doubling dilutions of the test compounds. Observation for growth or no growth was performed after 16-20 hours of incubation at 35±2° C. in ambient air. The overall procedure was performed as per Clinical and Laboratory Standards Institute (CLSI) recommendations (Clinical and Laboratory Standards Institute (CLSI), Performance Standards for Antimicrobial Susceptibility Testing, 20th Informational Supplement, M 100-S20, Volume 30, No. 1, 2010).
(§2) Table 3 details antibacterial activity of representative compounds according to the invention against various E. coli strains (NCTC 13351, M 50 and 7 MP) expressing ESBL (Extended Spectrum Beta Lactamases).

E. coli NCTC 13351 = details: 16-20 hours, 35±2° C.
Procedure: as §1, §2

E. coli M 50 = E. coli M 50 expressing ESBL, agar dilution
Procedure: as §1
The activities are expressed as MICs (mcg/ml).

[1] = Escherichia coli, read-out: MIC
[2] = Escherichia coli, NCTC13351, Table 3, E. coli NCTC 13351 expressing ESBL, read-out: MIC
[3] = Escherichia coli, M50, Table 3, read-out: MIC
[4] = Table 3, E. coli NCTC 13351 expressing ESBL

Compound	MIC (E. coli 7 MP; [1]) [µg/mL]	MIC (E. coli NCTC 13351; [2]) [µg/mL]	MIC (E. coli M 50; [3]) [µg/mL]	MIC (E. coli 7 MP) [µg/mL]	MIC (E. coli NCTC 13351; [4]) [µg/mL]	MIC (E. coli M 50; Table 3) [µg/mL]
CC(N)CC(=O)NNC(=O)[C@H]1CC[C@@H]2CN1C(=O)N2OS(=O)(=O)O (mixture of isomers) [Example 21, trans-sulfuric acid mono-[2-(N′—((RS)-3-amino-butanoyl)-hydrazinocarbonyl)-7-oxo-1,6-diaza-bicyclo[3.2.1]oct-6-yl]ester]	4 (≈ 10.9 µM)	1 (≈ 2.74 µM)	1 (≈ 2.74 µM)	–	–	–
O=C(NNC(=O)N1CCCC1)[C@H]1CC[C@@H]2CN1C(=O)N2OS(=O)(=O)O (relative stereo) [Example 29, trans-sulfuric acid mono-[2-(N′-[pyrrolidin-1-carbonyl]-hydrazinocarbonyl)-7-oxo-1,6-diaza-bicyclo[3.2.1]oct-6-yl]ester]	128 (≈ 339 µM)	32 (≈ 84.8 µM)	16 (≈ 42.4 µM)	–	–	–
NCCCC[C@H](N)C(=O)NNC(=O)[C@H]1CC[C@@H]2CN1C(=O)N2OS(=O)(=O)O (mixture of isomers) [Example 26, trans-sulfuric acid mono-[2-(N′-((2S)-2,6-diamino-hexanoyl)-hydrazinocarbonyl)-7-oxo-1,6-diaza-bicyclo[3.2.1]oct-6-yl]ester]	2	1	1	–	–	–
O=C(CC(=O)N1CCNCC1)NNC(=O)[C@H]1CC[C@@H]2CN1C(=O)N2OS(=O)(=O)O (relative stereo) [Example 40, trans-sulfuric acid mono-[2-(N′-(3-oxo-3-piperazin-1-yl-propionyl)-hydrazinocarbonyl)-7-oxo-1,6-diaza-bicyclo[3.2.1]oct-6-yl]ester]	4 (≈ 9.21 µM)	1 (≈ 2.3 µM)	1 (≈ 2.3 µM)	–	–	–
NNC(=O)[C@H]1CC[C@@H]2CN1C(=O)N2OS(=O)(=O)O (relative stereo) [Example 6, trans-sulfuric acid mono-[2-hydrazinocarbonyl-7-oxo-1,6-diaza-bicyclo[3.2.1]oct-6-yl]ester]	128 (≈ 457 µM)	32 (≈ 114 µM)	64 (≈ 228 µM)	–	–	–
N[C@@H](CO)C(=O)NNC(=O)[C@H]1CC[C@@H]2CN1C(=O)N2OS(=O)(=O)O (relative stereo) [Example 10]	–	–	–	32 (≈ 87.1 µM)	1 (≈ 2.72 µM)	8 (≈ 21.8 µM)
NCCCCC(=O)NNC(=O)[C@H]1CC[C@@H]2CN1C(=O)N2OS(=O)(=O)O (relative stereo) [Example 25, trans-sulfuric acid mono-[2-(N′-(5-amino-pentanoyl)-hydrazinocarbonyl)-7-oxo-1,6-diaza-bicyclo[3.2.1]oct-6-yl]ester]	4 (≈ 10.5 µM)	1 (≈ 2.64 µM)	1 (≈ 2.64 µM)	–	–	–
NC(C(=O)NNC(=O)[C@H]1CC[C@@H]2CN1C(=O)N2OS(=O)(=O)O)c1ccccn1 (mixture of isomers) [Example 41, trans-sulfuric acid mono-[2-(N′—((RS)-1-amino-1-pyridin-2-yl-acetyl)-hydrazinocarbonyl)-7-oxo-1,6-diaza-bicyclo[3.2.1]oct-6-yl]ester]	–	–	–	16 (≈ 38.6 µM)	4 (≈ 9.65 µM)	4 (≈ 9.65 µM)
NC(=O)c1cccc(C(=O)NNC(=O)C2CCC3CN2C(=O)N3OS(=O)(=O)[O-])n1.[Na+] (stereo not drawn) [Example 46, Sodium salt of trans-sulfuric acid mono-[2-(N′-(6-carboxamido-pyridin-2-carbonyl)-hydrazinocarbonyl)-7-oxo-1,6-diaza-bicyclo[3.2.1]oct-6-yl]ester]	–	–	–	128	32	64
O=C(O)CON1C(=O)N2C[C@H]1CC[C@H]2C(=O)NNC(=O)[C@@H]1CCCNC1 [Example 4, trans-{7-oxo-2-[N′—((R)-piperidin-3-carbonyl)-hydrazinocarbonyl]-1,6-diaza-bicyclo[3.2.1]-oct-6-yloxy}-acetic acid]	16 (≈ 43.3 µM)	8 (≈ 21.7 µM)	8 (≈ 21.7 µM)	–	–	–
